Results taken from PubChem BioAssay AID1949 (Southern Research Institute, 2009).
In brackets after ≈: the same amount, converted by molar mass. Results filed as inconclusive are left out. Activity calls are given as the source filed them. No rule for the calls is given here.

test system: M. tuberculosis H37Rv growth inhibition; assay: Confirmatory growth inhibition assay against Mycobacterium tuberculosis H37Rv, potency (AID 1949);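 also: bacteria grown 7 days with compound before Alamar blue readout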

**Q.** `CCn1c2ccccc2c2nnc(SCCCn3c(=O)[nH]c4ccccc43)nc21` was tested. Which IC50 did it give?
**A.** The IC50 was > 50 µg/mL (inactive).

**Q.** `Cc1ccc2nc(-c3cccc(NC(=O)c4cccs4)c3)[nH]c2c1` was tested. Which IC50 did it give?
**A.** The IC50 was 7.08 µg/mL (≈ 21.2 µM).

**Q.** How did the IC50 turn out when `O=C(Nc1cccc(CCc2ccccn2)c1)NC1CCCCC1` was run?
**A.** Its IC50 is 38.7 µg/mL (≈ 120 µM).

**Q.** How did the IC50 turn out when `Cc1ccccc1NC(=O)c1cc(Cl)ccc1O` was run?
**A.** Its IC50 is 2.6 µg/mL (≈ 9.93 µM).

**Q.** Which IC50 does the source give for `CC(C)COc1ccc(CNC(=S)NCc2ccccc2)cc1` here?
**A.** The IC50 was 4.39 µg/mL (≈ 13.4 µM).

**Q.** For `C=CCn1c(O)c(C2=c3ccccc3=NC2=O)sc1=N`, which IC50 is on record?
**A.** The IC50 was less than 0.1 µg/mL.

**Q.** Which IC50 does the source give for `O=C(Nc1ccc(Cl)c(C(F)(F)F)c1)c1ccc2c(c1)OCO2` here?
**A.** The IC50 was > 50 µg/mL (inactive).

**Q.** Which IC50 does the source give for `CCOc1ccccc1C(=O)Nc1cc(Cl)ccc1O` here?
**A.** Its IC50 is 4.22 µg/mL (≈ 14.5 µM).

**Q.** With `O=[N+]([O-])c1cccc(S(=O)(=O)Nc2cc(Br)c(O)c3ccccc23)c1` as the molecule, how does the IC50 read?
**A.** Its IC50 is 5.32 µg/mL (≈ 12.6 µM).

**Q.** `Cc1cc(OC(F)F)ccc1NC(=O)Nc1ccc([N+](=O)[O-])cc1` was tested. Which IC50 did it give?
**A.** The IC50 was 22.9 µg/mL (≈ 67.9 µM).

**Q.** For `CCOc1cc(C(=O)O/N=C(\N)Cc2ccc(Cl)cc2Cl)cc(OCC)c1OCC`, which IC50 is on record?
**A.** The IC50 was 38 µg/mL (≈ 83.5 µM).

**Q.** For `CCOc1ccc(OCc2ccc(C(=O)Nc3ccc(Cl)cn3)o2)cc1`, which IC50 is on record?
**A.** The IC50 was 19.9 µg/mL (≈ 53.5 µM).

**Q.** Which IC50 does the source give for `CC(=O)Nc1nc2ccccc2n1CCOc1ccccc1` here?
**A.** Its IC50 is 2.94 µg/mL (≈ 9.95 µM).

**Q.** How did the IC50 turn out when `c1ccc(CNCCCOc2cccc3ccccc23)cc1` was run?
**A.** The IC50 was 4.89 µg/mL (≈ 16.8 µM).

**Q.** `OCc1nc2ccccc2n1CC(O)COc1ccc(OCc2ccccc2)cc1` (centres undefined) was tested. Which IC50 did it give?
**A.** Its IC50 is 4.83 µg/mL (≈ 11.9 µM).

**Q.** `CN1CCN(c2ccc(NC(=O)c3ccc(-c4ccc(Br)cc4)o3)cc2)CC1` was tested. Which IC50 did it give?
**A.** The IC50 was 2.94 µg/mL (≈ 6.68 µM).

**Q.** Which IC50 does the source give for `COc1ccc2nc(C)c3cc(C)oc3c2c1` here?
**A.** Its IC50 is 1.82 µg/mL (≈ 8.01 µM).

**Q.** For `CCOc1ccc(NC(=O)CSc2nnc(-c3ccccc3Cl)o2)cc1`, which IC50 is on record?
**A.** Its IC50 is 3.35 µg/mL (≈ 8.59 µM).

**Q.** Which IC50 does the source give for `CCOC(=O)Cc1ccc2c(=O)c(Oc3ccc(F)cc3)coc2c1` here?
**A.** Its IC50 is 33 µg/mL (≈ 96.3 µM).

**Q.** How did the IC50 turn out when `O=C(COc1ccc(Cl)cc1)NCCC12CC3CC(CC(C3)C1)C2` was run?
**A.** The IC50 was 43.5 µg/mL (≈ 125 µM).

**Q.** How did the IC50 turn out when `COc1cc(NC(=S)N2CCN(C)CC2)cc(OC)c1` was run?
**A.** The IC50 was > 50 µg/mL (inactive).

**Q.** How did the IC50 turn out when `CCOc1ccc(C(=O)NC23CC4CC(CC(C4)C2)C3)cc1[N+](=O)[O-]` was run?
**A.** Its IC50 is > 50 µg/mL (inactive).

**Q.** How did the IC50 turn out when `CCc1nc2sc(C(=O)NCc3ccc(F)cc3)c(N)c2c(C(F)(F)F)c1C` was run?
**A.** Its IC50 is 2.61 µg/mL (≈ 6.34 µM).

**Q.** How did the IC50 turn out when `O=C(COc1ccc([N+](=O)[O-])cc1)Nc1ccccc1F` was run?
**A.** The IC50 was 18.7 µg/mL (≈ 64.6 µM).

**Q.** `CC(=O)c1cccc(-n2nnnc2S(C)(=O)=O)c1` was tested. Which IC50 did it give?
**A.** The IC50 was 2.75 µg/mL (≈ 10.3 µM).

**Q.** Which IC50 does the source give for `COC(=O)COc1cccc(NC(=O)c2ccc(Cl)cc2)c1` here?
**A.** The IC50 was 0.21 µg/mL (≈ 0.657 µM).

**Q.** Which IC50 does the source give for `Cc1cccnc1Nc1nc(-c2ccccn2)cs1` here?
**A.** The IC50 was less than 0.1 µg/mL.

**Q.** How did the IC50 turn out when `N#C/C(=C\C=C\c1ccco1)c1nc2c(s1)CCCC2` was run?
**A.** Its IC50 is 9.33 µg/mL (≈ 33 µM).

**Q.** Which IC50 does the source give for `CCCOc1ccc(Nc2cc(C)nc3ccc(Cl)cc23)cc1` here?
**A.** Its IC50 is 0.74 µg/mL (≈ 2.26 µM).

**Q.** With `CCCCOC(=O)c1cccc(NC(=O)c2cccc(Cl)c2)c1` as the molecule, how does the IC50 read?
**A.** Its IC50 is 4.03 µg/mL (≈ 12.1 µM).

**Q.** `CCCCNCCCCCOc1ccc(Cl)cc1Cl` was tested. Which IC50 did it give?
**A.** Its IC50 is 4.18 µg/mL (≈ 13.7 µM).

**Q.** `Cc1c(C(=O)c2ccccc2)sc2nc(-c3ccccc3)nc(N)c12` was tested. Which IC50 did it give?
**A.** The IC50 was 7.76 µg/mL (≈ 22.5 µM).

**Q.** How did the IC50 turn out when `O=C(Nc1ccccc1)Nc1ccc(S(=O)(=O)Nc2cccc(C(F)(F)F)c2)cc1` was run?
**A.** Its IC50 is 2.28 µg/mL (≈ 5.24 µM).

**Q.** How did the IC50 turn out when `CCc1cc2c(=O)oc(-c3ccc(F)cc3)nc2s1` was run?
**A.** The IC50 was > 50 µg/mL (inactive).

**Q.** `Cc1ccc(C(C)C)c(OCCNCc2ccccc2)c1` was tested. Which IC50 did it give?
**A.** The IC50 was > 50 µg/mL (inactive).

**Q.** Which IC50 does the source give for `CC(C)(C)n1cnc2cc(NC(=O)c3ccc(Cl)cc3)ccc21` here?
**A.** The IC50 was 0.99 µg/mL (≈ 3.02 µM).

**Q.** With `CCn1c2ccccc2c2cc(CN3CCC(N4CCN(c5ccccc5OC)CC4)CC3)ccc21` as the molecule, how does the IC50 read?
**A.** The IC50 was 22.4 µg/mL (≈ 46.4 µM).

**Q.** `COC(=O)COc1ccc(NC(=O)CSc2ccc(Cl)cc2)cc1` was tested. Which IC50 did it give?
**A.** Its IC50 is 0.77 µg/mL (≈ 2.1 µM).

**Q.** `CCCc1cc(C(=O)OC)c(NC(=O)c2cc3ccccc3oc2=O)s1` was tested. Which IC50 did it give?
**A.** Its IC50 is 39.4 µg/mL (≈ 106 µM).

**Q.** With `CCOc1ccc(C(=O)Nc2ccc(N3CCN(C(=O)c4cccs4)CC3)c(Cl)c2)cc1Br` as the molecule, how does the IC50 read?
**A.** Its IC50 is 0.53 µg/mL (≈ 0.966 µM).

**Q.** For `O=C(Oc1cccc2cccnc12)c1ccco1`, which IC50 is on record?
**A.** Its IC50 is 0.75 µg/mL (≈ 3.14 µM).

**Q.** How did the IC50 turn out when `CCn1cc(C(=O)O)c(=O)c2cc(F)c(N3CCN(C(=S)Nc4ccc(Cl)cc4)CC3)cc21` was run?
**A.** Its IC50 is 24.1 µg/mL (≈ 49.3 µM).

**Q.** `CCOC(=O)COc1ccc2c(=O)c(-c3ccc(F)cc3)coc2c1` was tested. Which IC50 did it give?
**A.** Its IC50 is 21.3 µg/mL (≈ 62.3 µM).

**Q.** How did the IC50 turn out when `Cc1ccc(Cl)cc1N(CC(=O)Nc1ccc(I)cc1)S(C)(=O)=O` was run?
**A.** Its IC50 is 4.66 µg/mL (≈ 9.73 µM).

**Q.** How did the IC50 turn out when `OCc1cn(-c2ccccc2)nc1-c1ccc2c(c1)OCCO2` was run?
**A.** The IC50 was 6.9 µg/mL (≈ 22.4 µM).

**Q.** For `Cc1cc(C(=O)Oc2ccccc2)ccc1[N+](=O)[O-]`, which IC50 is on record?
**A.** Its IC50 is 1.87 µg/mL (≈ 7.27 µM).

**Q.** With `CCOC(=O)CSc1cc(C)nc2ccc(C)cc12` as the molecule, how does the IC50 read?
**A.** The IC50 was 1.66 µg/mL (≈ 6.03 µM).

**Q.** For `Cc1ccccc1OC(=O)c1sc2ccccc2c1Cl`, which IC50 is on record?
**A.** Its IC50 is 2.05 µg/mL (≈ 6.77 µM).

**Q.** With `O=C(Nc1cccnc1)c1ccc2c(c1)C1C3CCC(C3)C1C(c1ccccc1)N2` (centres undefined) as the molecule, how does the IC50 read?
**A.** The IC50 was 37.5 µg/mL (≈ 94.8 µM).

**Q.** With `CCc1cc2c(=O)c(-c3ccc(OC)cc3)coc2cc1OCC(=O)OC` as the molecule, how does the IC50 read?
**A.** Its IC50 is 1.19 µg/mL (≈ 3.23 µM).

**Q.** `CCC(C)c1ccc(OCCCCn2ccnc2)cc1` (centres undefined) was tested. Which IC50 did it give?
**A.** Its IC50 is 1.12 µg/mL (≈ 4.11 µM).

**Q.** `COc1cccc(C(=O)NC(=S)Nc2ccc(N3CCN(C(=O)c4cccs4)CC3)c(Cl)c2)c1` was tested. Which IC50 did it give?
**A.** The IC50 was 0.76 µg/mL (≈ 1.48 µM).

**Q.** For `O=C(Cc1ccccc1)NC(=S)Nc1ccc(Oc2ccccc2)cc1`, which IC50 is on record?
**A.** The IC50 was 7.61 µg/mL (≈ 21 µM).

**Q.** Which IC50 does the source give for `O=c1c2cccc3c2c(nn1CCN1CCCCC1)-c1ccccc1-3` here?
**A.** Its IC50 is 2.84 µg/mL (≈ 8.57 µM).

**Q.** Which IC50 does the source give for `COc1ccc(Cl)cc1/C=C/[N+](=O)[O-]` here?
**A.** Its IC50 is 5.64 µg/mL (≈ 26.4 µM).

**Q.** Which IC50 does the source give for `c1cc2[nH]onc2c2c3c(nc12)CCCC3` here?
**A.** The IC50 was 8.28 µg/mL (≈ 38.8 µM).

**Q.** `NC(CC(=O)c1ccc(Cl)cc1Cl)C(Cl)(Cl)Cl` (centres undefined) was tested. Which IC50 did it give?
**A.** Its IC50 is 0.27 µg/mL (≈ 0.805 µM).

**Q.** For `COc1ccc(-c2csc(Nc3ccc(C)cn3)n2)cc1`, which IC50 is on record?
**A.** Its IC50 is 7.18 µg/mL (≈ 24.1 µM).

**Q.** How did the IC50 turn out when `COc1ccc(N2CCN(CC(O)COc3ccc(C)cc3C(C)(C)C)CC2)cc1` (centres undefined) was run?
**A.** Its IC50 is 4.09 µg/mL (≈ 9.91 µM).
